Measurements from US4675404A, “8-pyridazinylcarbamoyl ergolines” (Farmitala Carlo Erba S.p.A., priority 1981, dated 1987).
Like-named read-outs stand apart in the source and are kept apart here.

Key:
[1] = tested on: reserpine-induced blepharospasm; assay: antagonism to reserpine-induced blepharospasm; assay type: in vivo, male mice; conditions: Mus musculus, po, 3 h, read-out: Reserpine antagonism ED50, Blepharospasm
Experimental: (§1) The antidepressant activity of the ergoline derivatives according to the invention can be evaluated by antagonism to reserpine-induced blepharospasm and hypothermia.
(§2) The tests were performed in an air-conditioned room at a constant termperature of 19°±1° C. Randomized groups of male mice were respectively treated by gavage with appropriate screening doses (from a maximum of 25 mg/kg below) of the test compounds, suspended in the vehicle (Methocel 0.5%; 1 ml/100 g b.w.), or with the vehicle alone. One hour later the animals received an i.p. injection of reserpine (1.5 mg/kg; 1 ml/100 g b.w.), and one of the control groups the same volume of the vehicle alone (blank controls).
(§3) Three hours after pretreatments, i.e. two hours after reserpine or vehicle treatments, blepharospasm was evaluated in scores as proposed by Rubin et al. (J. Pharmacol. 120, 125 (1957)). Two hours after the above mentioned evaluation the rectal temperature of the animals was recorded by an appropriate probe connected to a digital thermometer (Ellab DU-3).

[2] = tested on: reserpine-induced hypothermia; assay: antagonism to reserpine-induced hypothermia; assay type: in vivo, male mice; conditions: Mus musculus, po, 5 h; mice; p.o. by gavage 1 h before reserpine 1.5 mg/kg i.p.; rectal temperature 2 h after blepharospasm evaluation
Experimental: as §1, §2, §3

[3] = orientative acute toxicity; conditions: in vivo, po

`Cc1nnc(NC(=O)[C@@H]2C[C@@H]3c4cccc5[nH]c(C)c(c45)C[C@H]3N(C)C2)s1` [Example 16, 2,6-dimethyl-8β-[2-(5-methyl-1,3,4-thiadiazolyl)-carbamoyl]-ergoline] gave an ED50 [1] of 1 mg/kg, an ED50 [2] of 1.7 mg/kg and an LD50 [3] of over 800 mg/kg.

In the case of `C=CCN1C[C@H](C(=O)Nc2nccs2)C[C@@H]2c3cccc4[nH]cc(c34)C[C@H]21` [Example 6, 6-allyl-8β-(2-thiazolyl-carbamoyl)-ergoline], the ED50 [1] is reported as 2.5 mg/kg, the ED50 [2] is reported as 4 mg/kg and the LD50 [3] is reported as over 300 mg/kg.

`Cc1[nH]c2cccc3c2c1C[C@@H]1[C@@H]3C[C@@H](C(=O)Nc2ccc(Cl)nn2)CN1C` [Example 4, 2,6-dimethyl-8β-(6-chloro-3-pyridazinyl-carbamoyl)-ergoline] showed an ED50 [1] of 0.2 mg/kg, an ED50 [2] of 0.6 mg/kg and an LD50 [3] of over 300 mg/kg.

For `C=CCN1C[C@H](C(=O)Nc2ccc(Cl)nn2)C[C@@H]2c3cccc4[nH]cc(c34)C[C@H]21` [Example 5, 6-allyl-8β-(6-chloro-3-pyridazinyl-carbamoyl)-ergoline], the ED50 [1] was 3.6 mg/kg, the ED50 [2] was 4.5 mg/kg and the LD50 [3] was over 600 mg/kg.

With `CN1C[C@H](C(=O)Nc2nccs2)C[C@@H]2c3cccc4c3c(cn4C)C[C@H]21` [1,6-dimethyl-8β-(2-thiazolyl-carbamoyl)-ergoline, reference compound] the ED50 [1] was 7 mg/kg and the ED50 [2] was 15 mg/kg.

`CCCN1C[C@H](C(=O)Nc2nccs2)C[C@@H]2c3cccc4[nH]cc(c34)C[C@H]21` [Example 7, 6-propyl-8β-(2-thiazolyl-carbamoyl)-ergoline] showed an ED50 [1] of 0.5 mg/kg, an ED50 [2] of 0.6 mg/kg and an LD50 [3] of over 300 mg/kg.

`Cc1nnc(NC(=O)[C@@H]2C[C@@H]3c4cccc5[nH]cc(c45)C[C@H]3N(C)C2)s1` [Example 10, 6-methyl-8β-[2-(5-methyl-1,3,4-thiadiazolyl)-carbamoyl]-ergoline] showed an ED50 [1] of 3.5 mg/kg, an ED50 [2] of 3.1 mg/kg and an LD50 [3] of over 600 mg/kg.

Molecule `CN(C)CCCN1c2ccccc2CCc2ccccc21` [Imipramine, reference compound] has an ED50 ([1]; mice, p.o. by gavage 1 h before reserpine 1.5 mg/kg i.p., scored 2 h after reserpine) of 8.1 mg/kg and an ED50 [2] of 18.2 mg/kg.
